Experimental data: patent publication US20220251074A1, “HERBICIDAL AMIDES” (BASF SE, priority 2019, published 2022)

How the values were obtained:
[1] = test system: CHEAL; assay: greenhouse post-emergence herbicidal test; assay type: in vivo, Chenopodium album; settings: post-emergence application, application rate 8 g/ha, scale from 0 to 100
Source text: (§1) The culture containers used were plastic flowerpots containing loamy sand with approximately 3.0% of humus as the substrate. The seeds of the test plants were sown separately for each species.
(§2) For the post-emergence treatment, the test plants were first grown to a height of 3 to 15 cm, depending on the plant habit, and only then treated with the active ingredients which had been suspended or emulsified in water. For this purpose, the test plants were either sown directly and grown in the same containers, or they were first grown separately as seedlings and transplanted into the test containers a few days prior to treatment.
(§3) Depending on the species, the plants were kept at 10-25° C. or 20-35° C., respectively. The test period extended over 2 to 4 weeks. During this time, the plants were tended, and their response to the individual treatments was evaluated.
(§4) Evaluation was carried out using a scale from 0 to 100. 100 means no emergence of the plants, or complete destruction of at least the aerial moieties, and 0 means no damage, or normal course of growth. A good herbicidal activity is given at values of at least 80 and a very good herbicidal activity is given at values of at least 90.
(§5) The plants used in the greenhouse experiments were of the following species: […]

[2] = test system: SETVI; assay: greenhouse post-emergence herbicidal test; assay type: in vivo, Setaria viridis; settings: application rate 500 g/ha, scale from 0 to 100; for damages, unwanted plants SETVI: post-emergence application, greenhouse; for herbicidal activity against SETVI: post-emergence method
Source text: as §1, §2, §3, §4, §5

[3] = test system: AVEFA; assay: greenhouse post-emergence herbicidal test; assay type: in vivo, Avena fatua; settings: application rate 500 g/ha, scale from 0 to 100; for damages, unwanted plants AVEFA: post-emergence application, greenhouse
Source text: as §1, §2, §3, §4, §5

[4] = test system: ALOMY; assay: greenhouse post-emergence herbicidal test; assay type: in vivo, Alopercurus myosuroides; settings: post-emergence application, application rate 500 g/ha, scale from 0 to 100
Source text: as §1, §2, §3, §4, §5

[5] = test system: SEBEX; assay: greenhouse post-emergence herbicidal test; assay type: in vivo, Sesbania exaltata; settings: post-emergence application, application rate 8 g/ha, scale from 0 to 100
Source text: as §1, §2, §3, §4, §5

[6] = test system: RAPRA; assay: greenhouse post-emergence herbicidal test; assay type: in vivo, Raphanus raphanistrum; settings: post-emergence application, application rate 8 g/ha, scale from 0 to 100
Source text: as §1, §2, §3, §4, §5

[7] = test system: AMARE; assay: greenhouse post-emergence herbicidal test; assay type: in vivo, Amaranthus retroflexus; settings: post-emergence method, application rate 500 g/ha, scale from 0 to 100
Source text: as §1, §2, §3, §4, §5

[8] = test system: ABUTH; assay: greenhouse post-emergence herbicidal test; assay type: in vivo, Abutilon theophrasti; settings: post-emergence method, application rate 500 g/ha, scale from 0 to 100
Source text: as §1, §2, §3, §4, §5

[9] = test system: SETFA; assay: greenhouse pre-emergence herbicidal test; assay type: in vivo, Setaria faberi; settings: pre-emergence method, application rate 500 g/ha, scale from 0 to 100
Source text: as §1
(§6) For the pre-emergence treatment, the active ingredients, which had been suspended or emulsified in water, were applied directly after sowing by means of finely distributing nozzles. The containers were irrigated gently to promote germination and growth and subsequently covered with transparent plastic hoods until the plants had rooted. This cover caused uniform germination of the test plants, unless this had been impaired by the active ingredients.
as §3, §4, §5

[10] = test system: ECHCG; assay: greenhouse post-emergence herbicidal test; assay type: in vivo, Echinocloa crus-galli; settings: post-emergence method, application rate 500 g/ha, scale from 0 to 100
Source text: as §1, §2, §3, §4, §5

[11] = test system: AMARE; assay: greenhouse pre-emergence herbicidal test; assay type: in vivo, Amaranthus retroflexus; settings: pre-emergence method, application rate 500 g/ha, scale from 0 to 100
Source text: as §1, §6, §3, §4, §5

Question: Which results are given for `C/C(=C\C(=O)NCCO)C[C@@H]1OC[C@H](C[C@@H]2O[C@H]2[C@@H](C)[C@H](C)O)[C@@H](O)[C@H]1O` [cmpd 77 (WO 93/19599), reference compound]?
Answer: damages, unwanted plants CHEAL [1]: 75; damages, unwanted plants SETVI [2]: 85; damages, unwanted plants AVEFA [3]: 50; damages, unwanted plants ALOMY [4]: 70; damages, unwanted plants SEBEX [5]: 65; damages, unwanted plants RAPRA [6]: 85

Question: What does the source list for `C/C(=C\C(=O)NCCF)C[C@@H]1OC[C@H](C[C@@H]2O[C@H]2[C@@H](C)[C@H](C)O)[C@@H](O)[C@H]1O` [compound 1]?
Answer: damages, unwanted plants CHEAL [1]: 100; damages, unwanted plants SETVI [2]: 100; damages, unwanted plants ALOMY [4]: 100; damages, unwanted plants RAPRA [6]: 100

Question: `C#CCNC(=O)/C=C(\C)C[C@@H]1OC[C@H](C[C@@H]2O[C@H]2[C@@H](C)[C@H](C)O)[C@@H](O)[C@H]1O` [compound 26, (E)-4-[(2S,3R,4R,5S)-3,4-dihydroxy-5-[[(2S,3S)-3-[(1S,2S)-2-hydroxy-1-methyl-propyl]oxiran-2-yl]methyl]tetrahydropyran-2-yl]-3-methyl-N-prop-2-ynyl-but-2-enamide] was tested. Which “damages, unwanted plants CHEAL” value [1] did it give?
Answer: 100

Question: What about the “damages, unwanted plants SETVI” value [2] of the same molecule?
Answer: 100

Question: What about the “damages, unwanted plants AVEFA” value [3] of the same molecule?
Answer: 98

Question: What about the “damages, unwanted plants ALOMY” value [4] of the same molecule?
Answer: 95

Question: What about the “damages, unwanted plants SEBEX” value [5] of the same molecule?
Answer: 100

Question: And the “damages, unwanted plants RAPRA” value [6]?
Answer: 100

Question: How did the “herbicidal activity against AMARE” value [7] turn out when `CC(=CC(=O)NCC(F)(F)C(F)(F)C(F)(F)F)CC1OCC(CC2OC2C(C)C(C)O)C2OC(C)(C)OC12` (stereo not shown) [compound 19] was run?
Answer: very good herbicidal activity (a very good herbicidal activity is given at values of at least 90)

Question: With `CC(=CC(=O)N1CCSC1=O)CC1OCC(CC2OC2C(C)C(C)O)C2OC(C)(C)OC12` (stereo not shown) [compound 39] as the molecule, how does the “herbicidal activity against SETVI” value [2] read?
Answer: very good herbicidal activity (a very good herbicidal activity is given at values of at least 90)

Question: What about the “herbicidal activity against ABUTH” value [8] of the same molecule?
Answer: very good herbicidal activity (a very good herbicidal activity is given at values of at least 90)

Question: With `C/C(=C\C(=O)NCC#CC(C)(C)C)C[C@@H]1OC[C@H](C[C@@H]2O[C@H]2[C@@H](C)[C@H](C)O)[C@@H](O)[C@H]1O` [compound 29] as the molecule, how does the “herbicidal activity against SETFA” value [9] read?
Answer: good herbicidal activity (A good herbicidal activity is given at values of at least 80)

Question: `C/C(=C\C(=O)NCC(F)(F)C(F)(F)C(F)(F)F)C[C@@H]1OC[C@H](C[C@@H]2O[C@H]2[C@@H](C)[C@H](C)O)[C@@H](O)[C@H]1O` [compound 9] was tested. Which “herbicidal activity against AMARE” value [7] did it give?
Answer: very good herbicidal activity (a very good herbicidal activity is given at values of at least 90)

Question: What about the “herbicidal activity against SETVI” value [2] of the same molecule?
Answer: very good herbicidal activity (a very good herbicidal activity is given at values of at least 90)

Question: What about the “herbicidal activity against ECHCG” value [10] of the same molecule?
Answer: good herbicidal activity (A good herbicidal activity is given at values of at least 80)

Question: What does the source list for `CC(=O)[C@H](C)[C@@H]1O[C@H]1C[C@H]1CO[C@@H](C/C(C)=C/C(=O)NCC(F)(F)F)[C@H](O)[C@@H]1O` [compound 43]?
Answer: herbicidal activity against SETVI [2]: very good herbicidal activity (a very good herbicidal activity is given at values of at least 90); herbicidal activity against AVEFA ([3]; post-emergence method): very good herbicidal activity (a very good herbicidal activity is given at values of at least 90); herbicidal activity against ABUTH [8]: very good herbicidal activity (a very good herbicidal activity is given at values of at least 90)

Question: `CCOC1OC2C(CC3OC3C(C)C(C)O)COC(CC(C)=CC(=O)NCC(F)(F)F)C2O1` (mixture of isomers) [compound 20] was tested. Which “herbicidal activity against AMARE” value [7] did it give?
Answer: very good herbicidal activity (a very good herbicidal activity is given at values of at least 90)

Question: And the “herbicidal activity against ABUTH” value [8]?
Answer: very good herbicidal activity (a very good herbicidal activity is given at values of at least 90)

Question: What about the “herbicidal activity against ECHCG” value [10] of the same molecule?
Answer: very good herbicidal activity (a very good herbicidal activity is given at values of at least 90)

Question: Which “herbicidal activity against AMARE” value [7] does the source give for `C/C(=C\C(=O)N1CCSC1=O)C[C@@H]1OC[C@H](C[C@@H]2O[C@H]2[C@@H](C)[C@H](C)O)[C@@H](O)[C@H]1O` [compound 37] here?
Answer: good herbicidal activity (A good herbicidal activity is given at values of at least 80)

Question: What about the “herbicidal activity against SETVI” value [2] of the same molecule?
Answer: very good herbicidal activity (a very good herbicidal activity is given at values of at least 90)

Question: And the “herbicidal activity against ABUTH” value [8]?
Answer: very good herbicidal activity (a very good herbicidal activity is given at values of at least 90)

Question: And the “herbicidal activity against ECHCG” value [10]?
Answer: good herbicidal activity (A good herbicidal activity is given at values of at least 80)

Question: How did the “herbicidal activity against AMARE” value [11] turn out when `C#CCNC(=O)C=C(C)CC1OCC(CC2OC2C(C)C(C)O)C2OC(OCC)OC12` (stereo not shown) [compound 33] was run?
Answer: good herbicidal activity (A good herbicidal activity is given at values of at least 80)
